Experimental data taken from patent US9873670B2, “Arylquinoline and analog compounds and use thereof to treat cancer” (UNIVERSITY OF KENTUCKY RESEARCH FOUNDATION, priority 2013, dated 2018).

Tests used:
[1] = system: mouse embryonic fibroblast (MEF) cells; assay: Par-4 secretion from normal mouse fibroblasts (Western blot of conditioned medium); assay type: cell-based; conditions: for level of Par-4 secretion, structure-activity comparison among analogs: normal mouse fibroblasts, conditions not toxic to the cells
Method: In another aspect, the subject technology provides assays for screening test compounds that interfere with vimentin binding to PAR-4 or which cause release of vimentin-bound PAR-4. In a typical assay, cells, such as HEL cells, are seeded onto an appropriate support, such as 60-mm plates containing supplemented growth medium (e.g., supplemented with 0.1% serum) at a desired confluency, such as 40-70% confluency, and treated with the test compound (e.g., 500 nM) or control vehicle. The cells are allowed to grow for a period of time, such as 24 hours, after which the conditioned medium (CM) is concentrated (e.g., concentrated 30× to 100 μl using Millipore tubes (Amicon Ultra centrifugal filters, Ultracel-10K) by 15 min centrifugation at 4500 rpm). The concentrated CM is then subjected to co-immunoprecipitation using detectably labeled PAR-4 and vimentin antibodies in the presence of various concentrations of purified PAR-4 and the precipitated proteins are resolved by SDS-PAGE and analyzed by Western blot analysis. The amount of immunoprecipitated PAR-4-vimentin complex is compared to that of control samples. For example, chemiluminescent signals may be quantified in the BIO-RAD Molecular Imager ChemiDoc XRS+Imaging system using Quantity One software. Induction of Par-4 secretion by the test drug (e.g., 500 nM), as judged by this Western blot analysis procedure, will indicate dissociation of Par-4 from vimentin. […] For such experiments, cells may be treated with the test drug (e.g., 500 nM) or vehicle for an appropriate period of time, such as 24 hours, and then cell lysates are prepared and subjected to immunoprecipitation using an appropriate amount of a Par-4 antibody, vimentin antibody or control IgG antibody by using any standard immunoprecipitation procedure. Following […], the complexes are resolved, preferably by Western blot analysis as described above. If the drug inhibits the binding of Par-4 to vimentin, it will be reflected in the lack of co-immunoprecipitation of Par-4 with the vimentin antibody, and co-immunoprecipitation of vimentin with the Par-4 antibody.
Co-Immunoprecipitation and Western blot analysis: Protein extracted from cell lysates was filtered, pre-cleared with 25 μL (bed volume) of protein G-Sepharose beads and immunoprecipitated with 1 μg of respective antibodies. The eluted proteins were resolved by SDS-PAGE, and subjected to Western blot analysis as described.
To identify Par-4 secretagogues, we synthesized and screened 3-arylquinolines as well as related quinolones and quinothiolones for the secretion of Par-4 protein from normal fibroblasts under conditions that are not toxic to the cells.
We screened representative members of each of these heterocyclic families on a compound-by-compound basis for the secretion of Par-4 protein from normal mouse fibroblasts under conditions that were not toxic to the cells. Initial expectations were that these heterocycles would serve as Nutlin-3a surrogates and inhibit MDM2, but studies reported herein established a completely different mechanism of action, reflecting that the structural dissimilarities between these heterocycles and Nutlin-3a outweighed the similarities that led to their initial selection for screening.

Par-4 secretion = assay: Par-4 secretion, cells not specified; assay type: cell-based

Compound | melting point [°C] | further results
COc1ccc(C2=N[C@@H](c3ccc(Cl)cc3)[C@@H](c3ccc(Cl)cc3)N2C(=O)N2CCNC(=O)C2)c(OC(C)C)c1 [Nutlin-3a, reference compound] |  | Par-4 secretion ([1]; MEF cells): stimulated Par-4 secretion at micromolar levels
C[C@H]1CCC/C=C/[C@@H]2C[C@H](O)C[C@H]2[C@H](O)/C=C/C(=O)O1 [Brefeldin A, reference compound] |  | effect on basal and Arylquin 1-inducible Par-4 secretion (Par-4 secretion): inhibited basal as well as Arylquin 1-inducible Par-4 secretion
CN(C)c1ccc2cc(-c3ccccc3F)cnc2c1 [Arylquin 6, 3-(2-fluorophenyl)-N,N-dimethylquinolin-7-amine] | 142 to 144 | level of Par-4 secretion, structure-activity comparison among analogs [1]: highest levels of Par-4 secretion
CN(C)c1ccc2cc(-c3ccccc3F)c(=O)[nH]c2c1 [Arylquin 4, 7-(dimethylamino)-3-(2-fluorophenyl)quinolin-2(1H)-one] | 247 to 248 | 
CN(C)c1ccc2cc(-c3ccccc3F)c(=S)[nH]c2c1 [Arylquin 5, 7-(dimethylamino)-3-(2-fluorophenyl)quinoline-2(1H)-thione] | 251 to 253 | 
CN(C)c1ccc2cc(-c3cccc(F)c3)c(N)nc2c1 [Arylquin 2, 3-(3-fluorophenyl)-N^7,N^7-dimethylquinoline-2,7-diamine] | 147 to 148 | 
Nc1nc2ccccc2cc1-c1ccccc1F [Arylquin 8, 3-(2-fluorophenyl)quinolin-2-amine] | 152 to 153 | level of Par-4 secretion, structure-activity comparison among analogs [1]: highest levels of Par-4 secretion
CN(C)c1ccc2cc(-c3ccccc3)c(N)nc2c1 [Arylquin 7, N^7,N^7-Dimethyl-3-phenylquinoline-2,7-diamine] | 123 to 125 | 
CN(C)c1ccc2cc(-c3ccccc3F)c(SCC(=O)NCCOCCOCCNC(=O)CCCCC3SCC4NC(=O)NC43)nc2c1 (centres unmarked) [Biotinylated Arylquin 9, N-(2-(2-(2-(2-(7-(dimethylamino)-3-(2-fluorophenyl)quinolin-2-ylthio)acetamido)ethoxy)ethoxy)ethyl)-5-(2-oxohexahydro-1H-thieno[3,4-d]imidazol-4-yl)pentanamide] |  | Par-4 secretory properties (Par-4 secretion): retain Par-4 secretory properties
